Test results: US10617695B2, “Ophthalmic compositions containing alcaftadine” (Vistakon Pharmaceuticals, LLC, priority 2006, dated 2020)

Key:
[1] = molecular target: T1, human histamine H4 receptor (Homo sapiens, UniProt Q9H3N8); assay: H4 receptor agonist assay: inhibition of forskolin-induced cAMP (reporter gene) in transfected SK-N-MC cells; type: cell-based
T1 construct: express a reporter gene construct and the human H4 receptor full-coding region; expressed in transfected cells; host or cells: SK-N-MC cells with a CRE-beta-galactosidase reporter
Experimental: (§1) Alcaftadine and 6,11-dihydro-11-(1-methyl-4-piperdinylidene)-5H-imidazo[2,1-b][3]benazepine-3-carboxylic acid (CAS #147083-93-0) were prepared at 10 mM in 100% dimethylsulfoxide (DMSO) for the binding assays and at 10 mM in Na/K phosphate buffer, pH 7.0, for the cellular assays. Cell pellets from SK-N-MC cells transfected with human H4 receptor were homogenized in 20 mM Tris-HCl/0.5 mM ethylendediaminetetraacetic acid (EDTA) pH 8.0 (TE buffer). Supernatants collected after centrifugation at 800 g were recentrifuged at 30,000 g for 30 min. Pellets were re-homogenized in TE buffer. […] Non-specific binding was defined with 100 μM cold histamine. […] Seven concentrations of compound were tested spanning 10^−11 to 10^−5 M with each concentration being run in triplicate. […] This assay was run twice and the results are reported as the average of the two runs. SK-N-MC cell lines were created that express a reporter gene construct and the human H4 receptor full-coding region. […] Color was quantitated on a microplate reader at absorbance 570 nm. […]
To test whether alcaftadine or 6,11-dihydro-11-(1-methyl-4-piperdinylidene)-5H-imidazo[2,1-b][3]benazepine-3-carboxylic acid (CAS #147083-93-0) were H4 receptor agonists, functional assays were carried out in SK-N-MC cells transfected with the human histamine H4 receptor. The ability of the compounds to inhibit forskolin-induced cAMP increases was assessed.

[2] = Systemic (plasma) levels of the carboxylic acid in patients; type: in vivo, human; conditions: for Cmax: plasma, other: ophthalmic solution, bilateral instillation, 0.25 % ophthalmic solution, 0.25% ophthalmic solution bilaterally
Experimental: Patients were bilaterally dosed with 0.25% ophthalmic solutions of 6,11-dihydro-11-(1-methyl-4-piperdinylidene)-5H-imidazo[2,1-b][3]benazepine-3-carboxylic acid for seven days. The plasma levels of those patients was assessed pre-dose, and 0.25, 0.5, 1, 1.5, 2, 3, 4, 6, 8, 12, and 18 hour post medication instillation on days one and seven.

[3] = molecular target: T1, human histamine H4 receptor; assay: H4 receptor antagonist assay: shift of histamine EC50, Schild plot, in transfected SK-N-MC cells; type: cell-based
Experimental: as §1, with “region. The reporter gene was β-galactosidase under the control of cyclic adenosine monophosphate (cAMP) responsive elements. Cells were plated in 96-well plates the night before the assay. Antagonists were added 10 min prior to the addition of histamine, which was added directly to the cell medium. Forskolin (5 μM final concentration) was added 10 min after the addition of histamine. Cells were returned to the incubator for 6 h at 37° C. The medium was then aspirated and cells were lysed with 25 μL of 0.1× assay buffer (10 mM sodium phosphate, pH 8, 0.2 mM MgSO4, 0.01 mM MnCl2) and incubated at room temperature for 10 min.” for “region.”
To test whether alcaftadine or 6,11-dihydro-11-(1-methyl-4-piperdinylidene)-5H-imidazo[2,1-b][3]benazepine-3-carboxylic acid (CAS #147083-93-0) were antagonists of the H4 receptor, the ability of the compounds shift the EC50 of the histamine inhibition of forskolin-induced cAMP increases was assessed in SK-N-MC cells transfected with the human histamine H4 receptor. […]

[4] = system: RBL-CCR1 (Rat Basophil Leukemia-Chemokine Receptor-1) cell line; assay: Mast cell degranulation / cell stabilization in RBL-CCR1 cells; type: cell-based
Experimental: The cell stabilization potential of alcaftadine was evaluated using the RBL-CCR1 (Rat Basophil Leukemia-Chemokine Receptor-1) cell line as a way of investigating its ability to effect mast cell stabilization. The use of basophil cell lines to assess anti-allergic drugs for cell stabilization potential is well established. Physiologically, basophils are similar to mast cells, containing pre-formed inflammatory mediators that are released through a similar degranulation process involving IgE cross-linking. Because these cell lines are readily available, they present efficiencies over conducting stabilization assays in mast cell lines.
Cultured RBL-CCR1 cells were sensitized to anti-DNP IgE. Following sensitization, cells were treated with various concentrations of alcaftadine or its major active metabolite (0.083%, 0.0083% and 0.00083%) or ophthalmic vehicle (placebo), and stimulated with DNP and/or MIP-1a (Macrophage Inflammatory Protein-1 alpha, a degranulation enhancer) to induce degranulation. A 10× and 100× placebo control solution (ophthalmic vehicle solution) in D-DEM (Dulbecco's modified Eagle's medium) was also employed.
However, co-stimulation induced a robust degranulation response.

[5] = molecular target: T1, human histamine H4 receptor; assay: [3H]histamine competition binding to membranes of SK-N-MC cells transfected with human H4 receptor; conditions: average of two runs; 10 nM [3H]histamine; Cheng and Prusoff

T1 sequence (Q9H3N8 whole entry): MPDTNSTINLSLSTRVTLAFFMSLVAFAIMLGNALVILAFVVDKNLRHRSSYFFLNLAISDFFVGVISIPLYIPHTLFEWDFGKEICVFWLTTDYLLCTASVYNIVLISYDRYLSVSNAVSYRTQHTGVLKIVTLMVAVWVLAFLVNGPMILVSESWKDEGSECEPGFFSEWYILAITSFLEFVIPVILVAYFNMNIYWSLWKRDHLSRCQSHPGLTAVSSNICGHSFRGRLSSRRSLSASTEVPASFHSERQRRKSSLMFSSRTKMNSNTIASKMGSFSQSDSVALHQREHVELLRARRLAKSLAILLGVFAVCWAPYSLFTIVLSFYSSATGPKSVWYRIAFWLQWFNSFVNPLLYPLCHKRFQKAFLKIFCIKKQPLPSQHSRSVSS

Row | SMILES | agonist activity: inhibition of forskolin-induced cAMP levels [1] | maximum plasma concentrations ([2]; human, in vivo) | Cmax ([2]; human, Day 1) | Cmax ([2]; human, Day 7) | time by which plasma concentrations declined to below the lower limit of quantification ([2]; post dosing, lower limit of quantification 0.1 ng/mL) | antagonist activity: shift of histamine EC50 (highest concentration without shift) [3] | overall membrane stabilization [4] | stabilization effect added to that of placebo ([4]; 10× dose level) | degranulation at the highest concentration ([4]; […], DNP-HSA alone, MIP-1a alone, and co-stimulation) | cell stabilization compared to co-stimulation control and negative controls (placebo 10× and placebo 100×) ([4]; co-stimulation assay, concentrations of […] and […], p<0.0001 for both concentrations) | EC50 ([1]; absence of histamine, read-out: agonist activity: inhibition of forskolin-induced cAMP levels (highest concentration without agonism)) | Ki [5]
1 | NCCc1c[nH]cn1 [histamine, reference compound] | agonist | – | – | – | – | – | – | – | – | – | – | –
2 | CN1CCC(=C2c3ccccc3CCn3c(C(=O)O)cnc32)CC1 [6,11-dihydro-11-(1-methyl-4-piperdinylidene)-5H-imidazo[2,1-b][3]benazepine-3-carboxylic acid] | – | 7.23 ng/mL | 3.23 ng/mL | 2.71 ng/mL | ≤ 12 h | > 100 µM | effective membrane stabilizing agents | enhanced the stabilization effect | unanticipated and significant degranulation | superior at cell stabilization | > 100 µM | > 10 µM
